Columns and labels:
Assay type in all cases: in vivo
[1] = tested on: barnyardgrass (Echinochloa crus-galli); experiment: Test A preemergence, directed soil spray, visual injury rating; conditions: 0 is no effect, 100 is complete control
How it was run: (§1)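 Compounds in a surfactant-containing solvent were applied as a directed soil spray preemergence, or postemergence to plants 2-10 cm tall at the one- to two-leaf stage, in loam-sand blend. After about 10 d in the greenhouse, injury was rated visually against untreated controls on a 0-100 scale (100 = complete control).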

[2] = tested on: ryegrass, It. (Italian ryegrass, Lolium multiflorum); experiment: as above; conditions: 0 is no effect, 100 is complete control
How it was run: as §1

[3] = tested on: ragweed (common ragweed, Ambrosia elatior); experiment: as above; conditions: 0 is no effect, 100 is complete control
How it was run: as §1

[4] = tested on: foxtail, giant (giant foxtail, Setaria faberii); experiment: as above; conditions: 0 is no effect, 100 is complete control
How it was run: as §1

[5] = tested on: pigweed (Amaranthus retroflexus); experiment: as above; conditions: 0 is no effect, 100 is complete control
How it was run: as §1

[6] = tested on: kochia (Kochia scoparia); experiment: as above; conditions: 0 is no effect, 100 is complete control
How it was run: as §1

[7] = tested on: barnyardgrass (Echinochloa crus-galli); experiment: Test B flooded paddy test, visual rating; conditions: Flood, 250 g ai/ha, applied to paddy water, rated after 13 to 15 d
How it was run: (§2)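 Plants grown to the 2-leaf stage. At treatment, pots were flooded to 3 cm above the soil, compound was applied directly to the paddy water, and that depth was held throughout. After 13 to 15 d in the greenhouse, response was rated visually against controls on a 0 (no effect) to 100 (complete control) scale.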

[8] = tested on: sedge, umbrella (small-flower umbrella sedge, Cyperus difformis); experiment: Test B flooded paddy test, visual rating; conditions: Flood, 250 g ai/ha, applied to paddy water, rated after 13 to 15 d
How it was run: as §2

[9] = tested on: ducksalad (Heteranthera limosa); experiment: Test B flooded paddy test, visual rating; conditions: Flood, 250 g ai/ha, applied to paddy water, rated after 13 to 15 d
How it was run: as §2

[10] = tested on: rice (Oryza sativa); experiment: Test B flooded paddy test, visual rating; conditions: Flood, 250 g ai/ha, applied to paddy water, rated after 13 to 15 d
How it was run: as §2

[11] = tested on: galium (catchweed bedstraw, Galium aparine); experiment: Test A postemergence application, visual injury rating; conditions: 0 to 100 scale, 0 no effect, 100 complete control
How it was run: as §1

[12] = tested on: barnyardgrass (Echinochloa crus-galli); experiment: as above; conditions: 0 to 100 scale, 0 no effect, 100 complete control
How it was run: as §1

[13] = tested on: ryegrass, It. (Italian ryegrass, Lolium multiflorum); experiment: as above; conditions: 0 to 100 scale, 0 no effect, 100 complete control
How it was run: as §1

[14] = tested on: wheat (Triticum aestivum); experiment: as above; conditions: 0 to 100 scale, 0 no effect, 100 complete control
How it was run: as §1

[15] = tested on: ragweed (common ragweed, Ambrosia elatior); experiment: as above; conditions: 0 to 100 scale, 0 no effect, 100 complete control
How it was run: as §1

[16] = tested on: corn (Zea mays); experiment: as above; conditions: 0 to 100 scale, 0 no effect, 100 complete control
How it was run: as §1

[17] = tested on: blackgrass (Alopecurus myosuroides); experiment: as above; conditions: 0 to 100 scale, 0 no effect, 100 complete control
How it was run: as §1

[18] = tested on: foxtail, giant (giant foxtail, Setaria faberii); experiment: as above; conditions: 0 to 100 scale, 0 no effect, 100 complete control
How it was run: as §1

[19] = tested on: pigweed (Amaranthus retroflexus); experiment: as above; conditions: 0 to 100 scale, 0 no effect, 100 complete control
How it was run: as §1

[20] = tested on: kochia (Kochia scoparia); experiment: as above; conditions: 0 to 100 scale, 0 no effect, 100 complete control
How it was run: as §1

## Cc1nn(C)c(=O)c(-c2ccc(Cl)c3sc(Br)cc23)c1O [Compound 37]
[1]; 31 g ai/ha
  Plant response rating (0 to 100 scale), Barnyardgrass: 0
[1]; 125 g ai/ha
  Plant response rating (0 to 100 scale), Barnyardgrass: 0
[2]; 31 g ai/ha
  Plant response rating (0 to 100 scale), Ryegrass, It.: 0
[2]; 125 g ai/ha
  Plant response rating (0 to 100 scale), Ryegrass, It.: 0
[3]; 31 g ai/ha
  Plant response rating (0 to 100 scale), Ragweed: 0
[3]; 125 g ai/ha
  Plant response rating (0 to 100 scale), Ragweed: 50
[4]; 31 g ai/ha
  Plant response rating (0 to 100 scale), Foxtail, Giant: 0
[4]; 125 g ai/ha
  Plant response rating (0 to 100 scale), Foxtail, Giant: 0
[5]; 31 g ai/ha
  Plant response rating (0 to 100 scale), Pigweed: 0
[5]; 125 g ai/ha
  Plant response rating (0 to 100 scale), Pigweed: 0
[6]; 31 g ai/ha
  Plant response rating (0 to 100 scale), Kochia: 0
[6]; 125 g ai/ha
  Plant response rating (0 to 100 scale), Kochia: 0
[7]
  Barnyardgrass plant response rating (0 to 100 scale, 0 is no effect, 100 is complete control): 0
[8]
  Sedge, Umbrella plant response rating (0 to 100 scale, 0 is no effect, 100 is complete control): 0
[9]
  Ducksalad plant response rating (0 to 100 scale, 0 is no effect, 100 is complete control): 0
[10]
  Rice plant response rating (0 to 100 scale, 0 is no effect, 100 is complete control): 0
[11]; 31 g ai/ha
  Galium plant response rating: 20
[11]; 125 g ai/ha
  Galium plant response rating: 40
[12]; 31 g ai/ha
  Barnyardgrass plant response rating: 0
[12]; 125 g ai/ha
  Barnyardgrass plant response rating: 0
[13]; 31 g ai/ha
  Ryegrass, It. plant response rating: 0
[13]; 125 g ai/ha
  Ryegrass, It. plant response rating: 0
[14]; 31 g ai/ha
  Wheat plant response rating: 0
[14]; 125 g ai/ha
  Wheat plant response rating: 0
[15]; 31 g ai/ha
  Ragweed plant response rating: 0
[15]; 125 g ai/ha
  Ragweed plant response rating: 0
[16]; 31 g ai/ha
  Corn plant response rating: 0
[16]; 125 g ai/ha
  Corn plant response rating: 0
[17]; 31 g ai/ha
  Blackgrass plant response rating: 0
[17]; 125 g ai/ha
  Blackgrass plant response rating: 0
[18]; 31 g ai/ha
  Foxtail, Giant plant response rating: 0
[18]; 125 g ai/ha
  Foxtail, Giant plant response rating: 0
[19]; 31 g ai/ha
  Pigweed plant response rating: 0
[19]; 125 g ai/ha
  Pigweed plant response rating: 0
[20]; 31 g ai/ha
  Kochia plant response rating: 0
[20]; 125 g ai/ha
  Kochia plant response rating: 10

## Cn1nc(Cl)c(O)c(-c2cccc3[nH]nnc23)c1=O [Compound 38]
[1]; 31 g ai/ha
  Plant response rating (0 to 100 scale), Barnyardgrass: 0
[1]; 125 g ai/ha
  Plant response rating (0 to 100 scale), Barnyardgrass: 0
[2]; 31 g ai/ha
  Plant response rating (0 to 100 scale), Ryegrass, It.: 0
[2]; 125 g ai/ha
  Plant response rating (0 to 100 scale), Ryegrass, It.: 0
[3]; 31 g ai/ha
  Plant response rating (0 to 100 scale), Ragweed: 0
[3]; 125 g ai/ha
  Plant response rating (0 to 100 scale), Ragweed: 0
[4]; 31 g ai/ha
  Plant response rating (0 to 100 scale), Foxtail, Giant: 0
[4]; 125 g ai/ha
  Plant response rating (0 to 100 scale), Foxtail, Giant: 0
[5]; 31 g ai/ha
  Plant response rating (0 to 100 scale), Pigweed: 0
[5]; 125 g ai/ha
  Plant response rating (0 to 100 scale), Pigweed: 0
[6]; 31 g ai/ha
  Plant response rating (0 to 100 scale), Kochia: 0
[6]; 125 g ai/ha
  Plant response rating (0 to 100 scale), Kochia: 0
[7]
  Barnyardgrass plant response rating (0 to 100 scale, 0 is no effect, 100 is complete control): 0
[8]
  Sedge, Umbrella plant response rating (0 to 100 scale, 0 is no effect, 100 is complete control): 0
[9]
  Ducksalad plant response rating (0 to 100 scale, 0 is no effect, 100 is complete control): 0
[10]
  Rice plant response rating (0 to 100 scale, 0 is no effect, 100 is complete control): 0
[11]; 31 g ai/ha
  Galium plant response rating: 0
[11]; 125 g ai/ha
  Galium plant response rating: 0
[12]; 31 g ai/ha
  Barnyardgrass plant response rating: 0
[12]; 125 g ai/ha
  Barnyardgrass plant response rating: 0
[13]; 31 g ai/ha
  Ryegrass, It. plant response rating: 0
[13]; 125 g ai/ha
  Ryegrass, It. plant response rating: 0
[14]; 31 g ai/ha
  Wheat plant response rating: 0
[14]; 125 g ai/ha
  Wheat plant response rating: 0
[15]; 31 g ai/ha
  Ragweed plant response rating: 0
[15]; 125 g ai/ha
  Ragweed plant response rating: 0
[16]; 31 g ai/ha
  Corn plant response rating: 0
[16]; 125 g ai/ha
  Corn plant response rating: 0
[17]; 31 g ai/ha
  Blackgrass plant response rating: 0
[17]; 125 g ai/ha
  Blackgrass plant response rating: 0
[18]; 31 g ai/ha
  Foxtail, Giant plant response rating: 0
[18]; 125 g ai/ha
  Foxtail, Giant plant response rating: 0
[19]; 31 g ai/ha
  Pigweed plant response rating: 0
[19]; 125 g ai/ha
  Pigweed plant response rating: 0
[20]; 31 g ai/ha
  Kochia plant response rating: 0
[20]; 125 g ai/ha
  Kochia plant response rating: 0
